Laboratory results: article PMC5923399 (Marine Drugs, 2018)
Read-outs that look alike come from different tables or passages of the source. Where a SMILES comes first, the peptide text is derived from it. Bridges are numbered along the chain shown (N, C = ends).

Columns and labels:
α3β4 nAChR = target: T1, α3β4 nAChR (Rattus norvegicus, UniProt P04757+P12392); assay: cell-based
T1 construct: expressed in transfected cells; host or cells: Xenopus oocytes (cRNA injection)

α2β2 nAChR = target: T2, α2β2 nAChR (Rattus norvegicus, UniProt P12389+P12390); assay: cell-based
T2 construct: expressed in transfected cells; host or cells: Xenopus oocytes (cRNA injection)

α4β4 nAChR = target: T3, α4β4 nAChR (Rattus norvegicus, UniProt P09483+P12392); assay: cell-based
T3 construct: expressed in transfected cells; host or cells: Xenopus oocytes (cRNA injection)

α4β2 nAChR = target: T4, α4β2 nAChR (Rattus norvegicus, UniProt P09483+P12390); assay: cell-based
T4 construct: expressed in transfected cells; host or cells: Xenopus oocytes (cRNA injection)

α2β4 nAChR = target: T5, α2β4 nAChR (Rattus norvegicus, UniProt P12389+P12392); assay: cell-based
T5 construct: expressed in transfected cells; host or cells: Xenopus oocytes (cRNA injection)

α9α10 nAChR [1] = target: T6, α9α10 nAChR (Rattus norvegicus, UniProt P43144+Q9JLB5); assay: cell-based
T6 construct: expressed in transfected cells; host or cells: Xenopus oocytes (cRNA injection)

rat α3β2 nAChRs = target: T7, rat α3β2 nAChRs (Rattus norvegicus, UniProt P04757+P12390); assay: cell-based
T7 construct: expressed in transfected cells; host or cells: Xenopus oocytes (cRNA injection)

GABABR-coupled Cav2.2 = target: T8, GABABR-coupled Cav2.2 (Homo sapiens, UniProt O75899+Q9UBS5); assay: cell-based; parameters: species or system human GABABR and rat Cav2.2
T8 construct: expressed in transfected cells; host or cells: HEK293T cells, transient transfection; GABAB subunit plasmids from David J. Adams, University of Wollongong

α7 nAChR = target: T9, α7 nAChR (Rattus norvegicus, UniProt Q05941); assay: cell-based
T9 construct: expressed in transfected cells; host or cells: Xenopus oocytes (cRNA injection)

α9α10 nAChR [2] = target: T6, α9α10 nAChR; details: read-out: IC50 α9α10; cited from earlier work

T7 sequence (P04757 26-499 limits assumed): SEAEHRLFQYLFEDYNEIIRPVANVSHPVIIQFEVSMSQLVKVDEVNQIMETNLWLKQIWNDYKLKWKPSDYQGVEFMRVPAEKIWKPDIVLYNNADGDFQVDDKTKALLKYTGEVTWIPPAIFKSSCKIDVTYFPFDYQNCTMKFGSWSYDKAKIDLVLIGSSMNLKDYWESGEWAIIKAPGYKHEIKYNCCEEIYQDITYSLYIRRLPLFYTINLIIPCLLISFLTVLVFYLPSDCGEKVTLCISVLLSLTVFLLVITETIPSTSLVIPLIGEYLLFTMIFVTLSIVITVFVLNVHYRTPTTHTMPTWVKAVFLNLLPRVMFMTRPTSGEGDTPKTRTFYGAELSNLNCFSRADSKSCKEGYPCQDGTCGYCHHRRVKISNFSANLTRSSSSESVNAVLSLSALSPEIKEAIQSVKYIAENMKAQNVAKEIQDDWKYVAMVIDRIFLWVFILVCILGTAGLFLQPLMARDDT
T7 sequence (P12390 25-500 limits assumed): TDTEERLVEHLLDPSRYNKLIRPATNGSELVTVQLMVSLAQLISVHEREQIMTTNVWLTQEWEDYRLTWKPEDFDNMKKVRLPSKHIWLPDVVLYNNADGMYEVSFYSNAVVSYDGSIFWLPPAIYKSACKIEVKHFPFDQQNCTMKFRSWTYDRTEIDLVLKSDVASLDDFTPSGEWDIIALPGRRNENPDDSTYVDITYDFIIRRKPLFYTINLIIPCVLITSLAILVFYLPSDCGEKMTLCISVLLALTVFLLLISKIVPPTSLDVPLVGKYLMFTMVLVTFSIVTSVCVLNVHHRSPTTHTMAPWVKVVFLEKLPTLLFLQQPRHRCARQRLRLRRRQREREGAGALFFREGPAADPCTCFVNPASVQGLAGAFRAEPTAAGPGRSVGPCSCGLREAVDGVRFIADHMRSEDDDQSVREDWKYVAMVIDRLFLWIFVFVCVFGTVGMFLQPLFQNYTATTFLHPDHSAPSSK
T8 sequence (Q9UBS5 15-961 limits assumed): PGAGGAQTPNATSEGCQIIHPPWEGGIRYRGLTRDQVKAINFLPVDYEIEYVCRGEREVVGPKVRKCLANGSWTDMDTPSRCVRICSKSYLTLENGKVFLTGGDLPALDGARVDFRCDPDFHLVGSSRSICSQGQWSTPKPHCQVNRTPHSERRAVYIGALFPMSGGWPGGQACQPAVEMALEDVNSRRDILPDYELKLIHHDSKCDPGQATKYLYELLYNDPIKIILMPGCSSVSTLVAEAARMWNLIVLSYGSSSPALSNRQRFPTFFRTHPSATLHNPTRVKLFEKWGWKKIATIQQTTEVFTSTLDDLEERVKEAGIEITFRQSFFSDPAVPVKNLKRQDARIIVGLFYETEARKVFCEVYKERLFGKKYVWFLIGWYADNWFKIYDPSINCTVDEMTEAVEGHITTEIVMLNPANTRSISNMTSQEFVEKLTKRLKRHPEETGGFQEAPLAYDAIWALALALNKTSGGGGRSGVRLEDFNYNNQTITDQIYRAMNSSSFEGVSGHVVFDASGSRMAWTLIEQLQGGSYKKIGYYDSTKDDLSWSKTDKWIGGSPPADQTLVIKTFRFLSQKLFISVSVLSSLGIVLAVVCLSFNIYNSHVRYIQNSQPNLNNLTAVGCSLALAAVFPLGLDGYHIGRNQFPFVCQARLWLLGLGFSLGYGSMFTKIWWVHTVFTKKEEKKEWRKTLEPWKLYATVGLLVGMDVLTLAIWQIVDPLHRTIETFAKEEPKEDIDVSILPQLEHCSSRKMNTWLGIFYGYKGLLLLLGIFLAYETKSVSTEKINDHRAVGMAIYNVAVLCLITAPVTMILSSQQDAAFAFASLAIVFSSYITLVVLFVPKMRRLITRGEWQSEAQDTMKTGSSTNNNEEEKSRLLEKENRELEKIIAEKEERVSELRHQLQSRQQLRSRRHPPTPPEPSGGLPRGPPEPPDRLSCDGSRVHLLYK
T8 sequence (O75899 42-941): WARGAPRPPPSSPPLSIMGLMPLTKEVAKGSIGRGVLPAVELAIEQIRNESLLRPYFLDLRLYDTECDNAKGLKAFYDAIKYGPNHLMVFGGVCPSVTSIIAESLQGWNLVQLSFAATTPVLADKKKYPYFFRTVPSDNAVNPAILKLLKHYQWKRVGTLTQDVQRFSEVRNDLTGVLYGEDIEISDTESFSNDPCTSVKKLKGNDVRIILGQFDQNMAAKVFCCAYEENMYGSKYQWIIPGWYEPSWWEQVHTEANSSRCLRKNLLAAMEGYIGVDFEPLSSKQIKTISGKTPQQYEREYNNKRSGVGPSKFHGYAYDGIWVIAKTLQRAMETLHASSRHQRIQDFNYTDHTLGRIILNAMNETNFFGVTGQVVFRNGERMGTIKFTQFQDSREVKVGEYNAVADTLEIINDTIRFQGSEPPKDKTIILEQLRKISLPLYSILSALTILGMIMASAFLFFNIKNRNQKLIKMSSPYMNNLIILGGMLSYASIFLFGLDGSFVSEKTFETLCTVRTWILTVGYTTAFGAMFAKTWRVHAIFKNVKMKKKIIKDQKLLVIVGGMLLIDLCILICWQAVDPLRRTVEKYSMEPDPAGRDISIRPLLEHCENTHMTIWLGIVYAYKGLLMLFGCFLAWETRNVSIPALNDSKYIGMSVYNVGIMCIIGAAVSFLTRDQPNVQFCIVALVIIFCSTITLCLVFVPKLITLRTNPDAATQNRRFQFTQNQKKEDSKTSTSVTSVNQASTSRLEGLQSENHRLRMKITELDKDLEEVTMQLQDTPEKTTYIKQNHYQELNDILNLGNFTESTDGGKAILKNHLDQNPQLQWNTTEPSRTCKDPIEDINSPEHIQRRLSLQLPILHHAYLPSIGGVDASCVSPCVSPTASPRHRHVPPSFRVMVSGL
T6 sequence (P43144 26-479 limits assumed): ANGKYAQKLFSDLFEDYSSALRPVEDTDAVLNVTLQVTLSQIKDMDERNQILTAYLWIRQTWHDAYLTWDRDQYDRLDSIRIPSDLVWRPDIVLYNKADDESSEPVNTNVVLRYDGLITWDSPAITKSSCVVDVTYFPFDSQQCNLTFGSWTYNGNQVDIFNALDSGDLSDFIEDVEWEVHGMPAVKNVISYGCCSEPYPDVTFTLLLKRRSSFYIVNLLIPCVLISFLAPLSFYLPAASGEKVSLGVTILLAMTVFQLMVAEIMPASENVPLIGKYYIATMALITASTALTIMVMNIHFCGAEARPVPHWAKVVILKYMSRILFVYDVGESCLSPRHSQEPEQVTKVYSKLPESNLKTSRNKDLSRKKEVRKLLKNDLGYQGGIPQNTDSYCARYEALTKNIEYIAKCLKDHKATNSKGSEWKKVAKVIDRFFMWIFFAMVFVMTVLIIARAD
T6 sequence (Q9JLB5 25-447 limits assumed): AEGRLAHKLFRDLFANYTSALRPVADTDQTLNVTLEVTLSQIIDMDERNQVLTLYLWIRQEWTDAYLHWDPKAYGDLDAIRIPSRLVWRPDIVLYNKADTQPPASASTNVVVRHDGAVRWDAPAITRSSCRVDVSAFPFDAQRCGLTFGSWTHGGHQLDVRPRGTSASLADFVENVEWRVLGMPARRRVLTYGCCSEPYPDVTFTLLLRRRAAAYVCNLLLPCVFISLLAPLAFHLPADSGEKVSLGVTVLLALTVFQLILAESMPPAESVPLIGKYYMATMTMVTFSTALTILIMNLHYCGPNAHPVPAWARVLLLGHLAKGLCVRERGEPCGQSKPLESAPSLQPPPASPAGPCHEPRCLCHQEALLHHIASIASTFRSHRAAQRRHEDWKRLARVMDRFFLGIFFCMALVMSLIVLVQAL
T3 sequence (P09483 31-630 limits assumed): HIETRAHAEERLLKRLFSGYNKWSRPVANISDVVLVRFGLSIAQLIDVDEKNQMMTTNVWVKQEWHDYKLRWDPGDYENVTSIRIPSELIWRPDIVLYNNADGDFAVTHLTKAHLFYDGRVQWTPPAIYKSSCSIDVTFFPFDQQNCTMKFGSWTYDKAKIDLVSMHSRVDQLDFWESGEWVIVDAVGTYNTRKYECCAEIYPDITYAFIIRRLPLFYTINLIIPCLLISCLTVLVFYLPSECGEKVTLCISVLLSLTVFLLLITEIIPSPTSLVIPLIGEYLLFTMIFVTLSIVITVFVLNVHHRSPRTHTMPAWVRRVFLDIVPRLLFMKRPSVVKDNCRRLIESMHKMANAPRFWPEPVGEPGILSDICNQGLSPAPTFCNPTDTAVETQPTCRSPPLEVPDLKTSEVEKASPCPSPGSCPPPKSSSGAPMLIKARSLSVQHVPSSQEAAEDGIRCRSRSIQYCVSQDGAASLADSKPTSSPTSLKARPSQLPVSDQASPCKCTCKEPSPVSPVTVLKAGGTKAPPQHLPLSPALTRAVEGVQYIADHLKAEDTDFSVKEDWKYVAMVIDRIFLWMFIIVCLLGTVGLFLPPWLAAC
T3 sequence (P12392 21-495 limits assumed): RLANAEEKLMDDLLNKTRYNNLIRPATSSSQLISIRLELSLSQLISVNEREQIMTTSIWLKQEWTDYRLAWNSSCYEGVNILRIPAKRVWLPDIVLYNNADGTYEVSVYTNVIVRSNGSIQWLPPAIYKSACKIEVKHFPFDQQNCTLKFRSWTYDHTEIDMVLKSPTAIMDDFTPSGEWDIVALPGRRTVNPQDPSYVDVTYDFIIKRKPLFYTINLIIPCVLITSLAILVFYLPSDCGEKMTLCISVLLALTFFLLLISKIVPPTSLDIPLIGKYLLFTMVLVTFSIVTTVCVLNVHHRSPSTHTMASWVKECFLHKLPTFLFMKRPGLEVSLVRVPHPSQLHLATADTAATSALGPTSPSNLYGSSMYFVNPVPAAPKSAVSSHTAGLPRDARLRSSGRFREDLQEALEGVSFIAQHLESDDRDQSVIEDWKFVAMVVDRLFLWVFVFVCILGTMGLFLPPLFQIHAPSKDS
T4 sequence (P09483 31-630 limits assumed): as the sequence (P09483 31-630 limits assumed) above
T4 sequence (P12390 25-500 limits assumed): as the sequence (P12390 25-500 limits assumed) above
T1 sequence (P04757 26-499 limits assumed): as the sequence (P04757 26-499 limits assumed) above
T1 sequence (P12392 21-495 limits assumed): as the sequence (P12392 21-495 limits assumed) above

Row | SMILES | IC50 (α3β4 nAChR) [µM] | IC50 (α2β2 nAChR) [µM] | IC50 (α4β4 nAChR) [µM] | IC50 (α4β2 nAChR) [µM] | IC50 (α2β4 nAChR) [µM] | IC50 (α9α10 nAChR [1]) [µM] | IC50 (rat α3β2 nAChRs) [µM] | selectivity index (SI) (rat α3β2 nAChRs) | IC50 (GABABR-coupled Cav2.2) [µM] | inhibition at 10 µM (GABABR-coupled Cav2.2; HEK-293T, read-out: inhibition of peak current amplitude, SEM) [%] | IC50 (α7 nAChR) [µM] | IC50 (α9α10 nAChR [2]) [µM]
1 | C[C@@H]1NC(=O)[C@@H]2CCCN2C(=O)[C@H](Cc2c[nH]cn2)NC(=O)[C@H](CO)NC(=O)[C@@H]2CSSC[C@@H](C(N)=O)NC(=O)[C@H](Cc3ccccc3)NC(=O)[C@H](Cc3ccc(O)cc3)NC(=O)[C@@H]3CCCN3C(=O)[C@H](CC(N)=O)NC(=O)[C@H](CC(N)=O)NC(=O)CNC(=O)[C@H](CO)NC(=O)[C@H](CSSC[C@H](NC(=O)CN)C(=O)N2)NC1=O [Lt1.3-II] (H-GCCSHPACSGNNPYFC-NH2; disulfide 2-8, 3-16) | > 10 | > 10 | > 10 | > 10 | > 10 | > 10 | 0.0448 | > 200 | > 10 | 3.2 ± 1.8 | > 10 | –
2 | CC[C@H](C)[C@@H]1NC(=O)[C@H](CCC(=O)O)NC(=O)[C@@H]2CCCN2C(=O)[C@H](Cc2cnc[nH]2)NC(=O)[C@H](CC(=O)O)NC(=O)[C@H](Cc2ccc(O)cc2)NC(=O)[C@H](CC(N)=O)NC(=O)[C@@H]2CSSC[C@H](NC(=O)CN)C(=O)N[C@@H](CSSC[C@@H](C(N)=O)NC1=O)C(=O)N[C@@H](CO)C(=O)N[C@@H](CC(=O)O)C(=O)N1CCC[C@H]1C(=O)N[C@@H](CCCNC(=N)N)C(=O)N2 [Vc1.1, reference compound] | – | – | – | – | – | – | – | – | 0.0024 | – | – | –
3 | CC[C@H](C)[C@@H]1NC(=O)[C@H](Cc2cnc[nH]2)NC(=O)[C@@H]2CCCN2C(=O)[C@H](CC(N)=O)NC(=O)[C@H](CC(N)=O)NC(=O)[C@H](C(C)C)NC(=O)[C@H](CC(N)=O)NC(=O)[C@@H]2CSSC[C@H](NC(=O)CN)C(=O)N[C@@H](CSSC[C@@H](C(N)=O)NC1=O)C(=O)N[C@@H](CO)C(=O)N[C@@H](Cc1cnc[nH]1)C(=O)N1CCC[C@H]1C(=O)N[C@@H](C)C(=O)N2 [RegIIA, reference compound] (H-GCCSHPACNVNNPHIC-NH2; disulfide 2-8, 3-16) | – | – | – | – | – | – | 0.0345 | – | – | – | – | > 1
